Data from patent US8563715B2, “Pyrimidine derivative having cell protecting effect and uses thereof” (Zenyaku Kogyo Kabushikikaisha, priority 2008, dated 2013).

Experiments:
[1] = tested on: rat brain homogenate (lipid peroxide production); assay: Antioxidant activity test (rat brain homogenate autoxidation test); assay type: biochemical; settings: lipid peroxide production suppression, 2 hours at 37 degrees Celsius, thiobarbituric acid method
Method: The cerebrum was removed from 7 to 11 week old male Wistar rats (Nihon Ikagaku) or male Sprague-Dawley (IGS) rats (Charles River), physiological saline was added, and a 20% brain homogenate was made. 4 μl of test compound dissolved in DMSO was mixed with 200 μl of brain homogenate and 200 μl of PBS (−) (diluted 100 times), incubated for 2 hours at 37 degrees Celsius and shaken at a rate of 160 times per minute, thereby producing a lipid peroxide. After cooling for 5 minutes, the produced lipid peroxide was measured as a thiobarbituric acid reactive substance by using the thiobarbituric acid method. Briefly, 100 μl of 8.1% dodecyl sulfate, 750 μl of 20% acetic acid adjusted to a pH of 3.5, and 750 μl of 0.8% thiobarbituric acid were added, and boiled for 60 minutes, and then cooled. Next, 500 μl of distilled water and 2.5 ml of N-butanol/pyridine (15:1) were added and after 5 minutes of shaking, the supernatant was taken after centrifuging for 10 minutes at 3000 rpm, and the absorbance at 532 nm was measured. The number of examples was 2 examples. Calculation was done of the (absorbance at each concentration/absorbance of a solvent control)×100, and after logit transformation, the lipid peroxide production suppression effect (IC 50 value) was calculated as an indicator of antioxidant activity.

[2] = tested on: astrocyte/neuron co-culture; assay: Brain cell damage induced by hydrogen peroxide treatment (LDH assay); assay type: cell-based; settings: Rattus norvegicus, hydrogen peroxide (250 μM), 24 hours, read-out: 50% inhibition concentration against cell damage in entire co-culture system (EC50 value)
Method: (§1) The brain was removed from 1 to 2 day old Wistar rats (Charles River) or Sprague-Dawley (IGS) rats (Charles River), and the cerebral cortex including the hippocampus was excised under ice cooling. After this cerebral cortex was minced, it was digested with papain solution (9 U/ml) containing DNase I (30 U/ml) at 37 degrees Celsius for 15 minutes, dispersing the cells. After further carrying out mechanical dispersing by pipetting, it was passed through a cell strainer with a pore size of 70 μm, and a cell suspension was obtained. Cells derived from 1.4 cerebra were seeded on 150 mm tissue culture dish (Iwaki Glass), and primary culture was carried out at 37 degrees Celsius and 5% CO2 using a D-MEM medium (Invitrogen) containing 10% heat-inactivated fetal calf serum (JRH). One day after the start of the culture, the nonadherent cells were removed, and the primary cultured astrocytes were obtained by continuing the culture for 4 to 5 further days. The primary cultured astrocytes were dispersed by trypsin treating, suspended in cryopreservation solution, and cryopreserved.
(§2) After thawing the cryopreserved primary cultured astrocytes, they were seeded on tissue culture plates (Iwaki Glass), and a confluent astrocyte layer was produced by a further 7 days of secondary culture using a D-MEM medium containing 10% heat-inactivated fetal calf serum. Neurons to be used in the co-culture with the astrocyte layer were obtained from fetal rat cerebrum. Briefly, brains were removed from Wistar rats (Charles River) or Sprague-Dawley (IGS) rats (Charles River) of embryonic age 18.5 days, and the cerebral cortex including the hippocampus was excised under ice cooling. After this cerebral cortex was minced, it was digested in papain solution (9 U/ml) containing DNase I (30 U/ml) at 37 degrees Celsius for 15 minutes, dispersing the cells. After further carrying out mechanical dispersing by pipetting, it was passed through a cell strainer with a pore size of 70 μm, and a cell suspension was obtained. This cell suspension was plated at a density of 1.3×10^5 cells/cm^2 on the astrocyte layer, and a co-culture was carried out using D-MEM/F-12 medium (Invitrogen) containing 10% heat-inactivated fetal calf serum and 5% horse serum (Invitrogen). 2 days after the start of the co-culture, cells were treated for 24 hours with 10 μM cytosine arabinoside in order to suppress the excessive cell proliferation of microglia and the like. 8 to 9 days after the start of the co-culture, cells were used for the test. Additionally, using one portion of the cells, immunofluorescent staining and nuclear staining was carried out with astrocyte recognizing antibodies (anti-GFAP) and neuron recognizing antibodies (anti-MAP2), in order to confirm that the present culture system is a co-culture system of astrocytes and neurons.
(§3) An astrocyte/neuron co-culture cultured on a 96 well plate was used in the test. A predetermined concentration of the test substance and hydrogen peroxide (250 μM) was simultaneously added to the cell culture in each well with continuing cultivation, and analysis was done 24 hours after this treatment. Using an LDH Cytotoxicity Detection Kit (Takara Bio), analysis was carried out in accordance with the included instruction manual, and the damage to the entire co-culture system by the hydrogen peroxide treatment and the protective effect (EC 50 value) of the test substance was evaluated. Further, the cell bodies and the neuronal processes of the neurons were observed by microscope, and the neuroprotective effect was evaluated.

[3] = tested on: neurons in astrocyte/neuron co-culture; assay: Brain cell damage induced by hydrogen peroxide treatment (neuroprotective effect, microscope observation); assay type: cell-based; settings: Rattus norvegicus, hydrogen peroxide (250 μM), 24 hours, read-out: Concentration for complete inhibition of neuronal death
Method: as §1, §2, §3

Compound | IC50 [1] [nM] | EC50 [2] [nM] | EC100 [3] [µM]
Oc1ccc(N2CCN(c3nc(N4CCOCC4)cc(N4CCOCC4)n3)CC2)cc1 [Compound 30, 2-[4-(4-hydroxyphenyl)piperazin-1-yl]-4,6-dimorpholinopyrimidine] | 6840 | 3010 | 10
c1ccc(N2CCN(c3cc(N4CCOCC4)nc(N4CCN(c5ccccc5)CC4)n3)CC2)cc1 [Compound 57, 2,4-bis(4-phenylpiperazin-1-yl)-6-morpholinopyrimidine] | 30500 | 5120 | 30
Nc1c(N2CCOCC2)nc(N2CCN(c3ccccc3)CC2)nc1N1CCOCC1 [Compound 63, 5-amino-4,6-dimorpholino-2-(4-phenylpiperazin-1-yl)pyrimidine] | 810 | 8300 | 30
Nc1c(N2CCOCC2)nc(N2CCC(Cc3ccccc3)CC2)nc1N1CCOCC1 [Compound 66, 5-amino-2-(4-benzylpiperidin-1-yl)-4,6-dimorpholinopyrimidine] | 820 | 2860 | 30
CN(C)c1nc(N2CCC(Cc3ccccc3)CC2)nc(N2CCSCC2)c1N [Compound 69, 5-amino-2-(4-benzylpiperidin-1-yl)-4-dimethylamino-6-thiomorpholinopyrimidine] | 1260 | 290 | 3
Nc1c(N2CCOCC2)nc(N2CCN(Cc3ccccc3)CC2)nc1N1CCOCC1 [Compound 73, 5-amino-2-(4-benzylpiperazin-1-yl)-4,6-dimorpholinopyrimidine] | 690 | 10600 | –
Nc1c(N2CCOCC2)nc(N2CCN(c3ccccn3)CC2)nc1N1CCOCC1 [Compound 75, 5-amino-4,6-dimorpholino-2-[4-(pyridin-2-yl)-piperazin-1-yl]pyrimidine] | 670 | 9460 | –
Fc1c(N2CCOCC2)nc(N2CCN(c3ccccc3)CC2)nc1N1CCOCC1 [Compound 82, 5-fluoro-4,6-dimorpholino-2-(4-phenylpiperazin-1-yl)pyrimidine] | 9200 | 600 | 3
Fc1c(N2CCOCC2)nc(N2CCOCC2)nc1N1CCc2ccccc2C1 [Compound 87, 5-fluoro-4-(3,4-dihydro-1H-isoquinolin-2-yl)-2,6-dimorpholinopyrimidine] | 5780 | 680 | 3
Fc1c(N2CCOCC2)nc(N2Cc3ccccc3C2)nc1N1CCOCC1 [Compound 89, 5-fluoro-2-(isoindolin-2-yl)-4,6-dimorpholinopyrimidine] | 3480 | 530 | 3
CN(C)c1nc(N2CCOCC2)c(F)c(N2CCN(c3ccccn3)CC2)n1 [Compound 91, 2-dimethylamino-5-fluoro-6-morpholino-4-[4-(pyridin-2-yl)piperazin-1-yl]pyrimidine] | 5880 | 880 | 10
Fc1c(N2CCOCC2)nc(N2CCOCC2)nc1N1CCNC(c2ccccc2)C1 (centres unmarked) [Compound 94, 5-fluoro-2,4-dimorpholino-6-(3-phenylpiperazin-1-yl)pyrimidine] | 16000 | 680 | 3
Cc1ccc(N2CCN(c3nc(N4CCOCC4)nc(N4CCOCC4)c3F)CC2)cc1 [Compound 99, 5-fluoro-4-[4-(4-methylphenyl)piperazin-1-yl]-2,6-dimorpholinopyrimidine] | 7510 | 400 | 1
Cc1cccc(N2CCN(c3nc(N4CCOCC4)c(F)c(N4CCOCC4)n3)CC2)c1C [Compound 105, 5-fluoro-4,6-dimorpholino-2-[4-(2,3-xylyl)piperazin-1-yl]pyrimidine] | 2770 | 290 | 1
CN(C)c1nc(N2CCOCC2)c(F)c(N2CCN(c3ccccc3Cl)CC2)n1 [Compound 110, 4-[4-(2-chlorophenyl)piperazin-1-yl]-2-dimethylamino-5-fluoro-6-morpholinopyrimidine] | 3020 | 330 | 1
Fc1c(N2CC=C(c3ccccc3)CC2)nc(N2CCOCC2)nc1N1CCOCC1 [Compound 121, 5-fluoro-2,4-dimorpholino-6-(4-phenyl-1,2,5,6-tetrahydropyridin-1-yl)pyrimidine] | 5050 | 320 | 1
Fc1c(N2CCOCC2)nc(N2CCc3ccccc3C2)nc1N1CCOCC1 [Compound 122, 5-fluoro-4,6-dimorpholino-2-(1,2,3,4-tetrahydro-2H-isoquinolin-2-yl)pyrimidine] | 5480 | 290 | 1
Cc1ccc(N2CCN(c3nc(N4CCN(C)CC4)nc(N4CCOCC4)c3F)CC2)cc1 [Compound 151, 5-fluoro-4-[4-(4-methylphenyl)piperazin-1-yl]-2-(4-methylpiperazin-1-yl)-6-morpholinopyrimidine] | 8410 | 980 | –
Cc1cccc(N2CCN(c3nc(N4CCN(Cc5ccc(N(C)C)cc5)CC4)nc(N4CCOCC4)c3F)CC2)c1C [Compound 192, 5-fluoro-2-[4-(4-dimethylaminobenzyl)piperazin-1-yl]-4-morpholino-6-[4-(2,3-xylyl)piperazin-1-yl]pyrimidine] | – | 300 | 1
COc1ccc(/C=C/c2nc(NCC(N)=O)c(N)c(N3CCOCC3)n2)cc1 [Compound 206, 5-amino-4-carbamoylmethylamino-2-[2-(4-methoxyphenyl)vinyl]-6-morpholinopyrimidine] | – | 4850 | 10
COc1ccc(/C=C/c2nc(NCCN3CCOCC3)c(N)c(N3CCOCC3)n2)cc1 [Compound 207, 5-amino-2-[2-(4-methoxyphenyl)vinyl]-4-morpholino-6-(2-morpholinoethylamino)pyrimidine] | – | 5800 | 10
CCOC(=O)C1CSCCN1c1nc(/C=C/c2ccc(OC)cc2)nc(N2CCOCC2)c1N (centres unmarked) [Compound 209, 5-amino-4-(3-ethoxycarbonylthiomorpholin-4-yl)-2-[2-(4-methoxyphenyl)vinyl]-6-morpholinopyrimidine] | – | 1480 | 10
COc1ccc(/C=C/c2nc(N(C)C)c(N)c(N3CCNCC3)n2)cc1 [Compound 210, 5-amino-4-dimethylamino-2-[2-(4-methoxyphenyl)vinyl]-6-(1-piperazinyl)pyrimidine] | – | 4070 | 10
COc1ccc(CCc2nc(N3CCOCC3)c(N)c(N3CCN(S(=O)(=O)N(C)C)CC3)n2)cc1 [Compound 214, 5-amino-4-(4-dimethylsulfamoylpiperazin-1-yl)-2-[2-(4-methoxyphenyl)ethyl]-6-morpholinopyrimidine] | – | 2260 | 10
COc1ccc(/C=C/c2nc(N3CCOCC3)c(N)c(N3CCN(S(=O)(=O)N(C)C)CC3)n2)cc1 [Compound 215, 5-amino-4-(4-dimethylsulfamoylpiperazin-1-yl)-2-[2-(4-methoxyphenyl)vinyl]-6-morpholinopyrimidine] | – | 1610 | 10
